Reference: US9556165B2 (priority 2012, dated 2017)
In brackets after ≈: the same amount, converted by molar mass.

Legend:
Assay type in all cases: cell-based
C. perfringens DSM756 = assay: microbe, parasite or virus in culture; conditions: for MIC: Clostridium perfringens, DSM756, read-out: strain 16 MIC, strain 16
S. maltophilia ICB7569 = assay: MIC determination, broth microdilution (CLSI); conditions: for MIC: Stenotrophomonas maltophilia, ICB7569, strain 10
C. freundii K21/3034 = assay: MIC determination, broth microdilution (CLSI); conditions: for MIC: Citrobacter freundii, K21/3034, strain 4
E. coli ATCC25922 = assay: MIC determination, broth microdilution (CLSI); conditions: for MIC: Escherichia coli, ATCC25922, strain 1
K. pneumoniae 60 = assay: MIC determination, broth microdilution (CLSI); conditions: for MIC: Klebsiella pneumoniae, 60, strain 2
A. baumannii ATCC15308 = assay: MIC determination, broth microdilution (CLSI); conditions: for MIC: Acinetobacter baumannii, ATCC15308, strain 9
E. coli J62 = assay: MIC determination, broth microdilution (CLSI); conditions: for MIC: Escherichia coli, J62, strain 17, read-out: strain 17 MIC
E. coli J62-TEM-3 = assay: MIC determination, broth microdilution (CLSI); conditions: for MIC: Escherichia coli, J62TEM3, read-out: strain 18 MIC, strain 18
P. aeruginosa PAO1 = assay: MIC determination, broth microdilution (CLSI); conditions: for MIC: Pseudomonas aeruginosa, PAO1, strain 6
H. influenzae ATCC 49247 = assay: MIC determination, broth microdilution (CLSI); conditions: for MIC: Haemophilus influenzae, ATCC49247, strain 13, read-out: strain 13 MIC
strain 19 = assay: MIC determination, broth microdilution (CLSI)
M. catarrhalis ICB489 = assay: MIC determination, broth microdilution (CLSI); conditions: for MIC: Moraxella catarrhalis, ICB489, strain 12
strain 21 = assay: MIC determination, broth microdilution (CLSI)
[1] = system: P. aeruginosa 2297 (AmpC wt); assay: MIC determination, broth microdilution (CLSI); conditions: for MIC: Pseudomonas aeruginosa, strain 7
strain 20 = assay: MIC determination, broth microdilution (CLSI)
M. morganii 126/3048 = assay: MIC determination, broth microdilution (CLSI); conditions: for MIC: Morganella morganii, 126/3048, strain 5
[2] = system: P. aeruginosa 2297-con (AmpC derepressed); assay: MIC determination, broth microdilution (CLSI); conditions: for MIC: Pseudomonas aeruginosa, read-out: strain 8 MIC, strain 8
B. fragilis 6688 = assay: MIC determination, broth microdilution (CLSI); conditions: for MIC: Bacteroides fragilis, 6688, strain 15, read-out: strain 15 MIC
S. aureus 133 = assay: MIC determination, broth microdilution (CLSI); conditions: for MIC: Staphylococcus aureus, 133, strain 11, read-out: strain 11 MIC
E. cloacae 34654 = assay: MIC determination, broth microdilution (CLSI); conditions: for MIC: Enterobacter cloacae, 34654, strain 3
S. pneumoniae 113 = assay: MIC determination, broth microdilution (CLSI); conditions: Streptococcus pneumoniae, 113, strain 14; read-out: strain 14 MIC

SMILES | strain 16 MIC (C. perfringens DSM756) [µg/mL] | strain 10 MIC (S. maltophilia ICB7569) [µg/mL] | strain 4 MIC (C. freundii K21/3034) [µg/mL] | strain 1 MIC (E. coli ATCC25922) [µg/mL] | strain 2 MIC (K. pneumoniae 60) | strain 9 MIC (A. baumannii ATCC15308) [µg/mL] | strain 17 MIC (E. coli J62) [µg/mL] | strain 6 MIC (P. aeruginosa PAO1) [µg/mL] | strain 13 MIC (H. influenzae ATCC 49247) [µg/mL] | strain 19 MIC (strain 19) [µg/mL] | strain 12 MIC (M. catarrhalis ICB489) | strain 21 MIC (strain 21) [µg/mL] | strain 20 MIC (strain 20) | strain 5 MIC (M. morganii 126/3048) | strain 8 MIC [2] [µg/mL] | strain 15 MIC (B. fragilis 6688) [µg/mL] | strain 3 MIC (E. cloacae 34654) | MIC (S. maltophilia ICB7569) [µg/mL] | MIC (E. coli J62-TEM-3) [µg/mL] | MIC (S. aureus 133) [µg/mL] | other results
CC1(C)[C@H](NC(=O)/C(=N\OC(COc2ccc(C(=N)N)cc2)C(=O)O)c2csc(N)n2)C(=O)N1OS(=O)(=O)O (mixture of isomers) [Example 27B, (2S and 2R)-2-({[(1Z)-1-(2-Amino-1,3-thiazol-4-yl)-2-{[(3S)-2,2-dimethyl-4-oxo-1-(sulfo-oxy)azetidin-3-yl]amino}-2-oxoethylidene]amino}oxy)-3-(4-carbamimidoylphenoxy)-propanoic acid] | 32 | 8 | 1 | 2 | 1 µg/mL | 16 | 2 | 16 | 0.5 | 1 | 0.25 µg/mL | 2 | 2 µg/mL | 1 µg/mL | 16 | 32 | 4 µg/mL |  |  |  | strain 18 MIC (E. coli J62-TEM-3): 8 µg/mL; strain 7 MIC [1]: 32 µg/mL; strain 11 MIC (S. aureus 133): 0.125 µg/mL
CC1(C)[C@H](NC(=O)/C(=N\OCCOc2ccc(C(=N)NCCNC=N)cc2)c2csc(N)n2)C(=O)N1OS(=O)(=O)O [Example 38] |  |  |  |  |  |  |  |  |  |  |  |  |  |  |  |  |  | 32 (≈ 52.3 µM) | 4 (≈ 6.54 µM) | ≤ 0.063 | MIC (C. perfringens DSM756): 2 µg/mL (≈ 3.27 µM); MIC (C. freundii K21/3034): 0.125 µg/mL (≈ 0.204 µM); MIC (E. coli ATCC25922): 0.125 µg/mL (≈ 0.204 µM); MIC (K. pneumoniae 60): 0.25 µg/mL (≈ 0.409 µM); MIC (A. baumannii ATCC15308): 0.25 µg/mL (≈ 0.409 µM); MIC (S. pneumoniae 113): 2 µg/mL (≈ 3.27 µM); MIC (E. coli J62): 0.25 µg/mL (≈ 0.409 µM); MIC (P. aeruginosa PAO1): 4 µg/mL (≈ 6.54 µM); MIC (H. influenzae ATCC 49247): ≤ 0.063 µg/mL; MIC (strain 19): 0.125 µg/mL (≈ 0.204 µM); MIC (M. catarrhalis ICB489): ≤ 0.063 µg/mL; MIC (strain 21): 0.25 µg/mL (≈ 0.409 µM); MIC [1]: 8 µg/mL (≈ 13.1 µM); MIC (strain 20): 0.25 µg/mL (≈ 0.409 µM); MIC (M. morganii 126/3048): 0.5 µg/mL (≈ 0.817 µM); MIC [2]: 4 µg/mL (≈ 6.54 µM); MIC (B. fragilis 6688): 4 µg/mL (≈ 6.54 µM); MIC (E. cloacae 34654): 0.25 µg/mL (≈ 0.409 µM)
CC1(C)[C@H](NC(=O)/C(=N\OCCSc2ccc(C(=N)N)cc2)c2csc(N)n2)C(=O)N1OS(=O)(=O)O [Example 7, (2Z)-2-(2-Amino-1,3-thiazol-4-yl)-2-({2-[(4-carbamimidoylphenyl)sulfanyl]ethoxy}imino)-N-[(3S)-2,2-dimethyl-4-oxo-1-(sulfooxy)azetidin-3-yl]ethanamide] |  |  |  |  |  |  |  |  |  |  |  |  |  |  |  |  |  | 4 (≈ 7.17 µM) | 8 (≈ 14.3 µM) | ≤ 0.063 | MIC (C. perfringens DSM756): 2 µg/mL (≈ 3.59 µM); MIC (C. freundii K21/3034): 0.5 µg/mL (≈ 0.897 µM); MIC (E. coli ATCC25922): 0.5 µg/mL (≈ 0.897 µM); MIC (K. pneumoniae 60): 1 µg/mL (≈ 1.79 µM); MIC (A. baumannii ATCC15308): 2 µg/mL (≈ 3.59 µM); MIC (S. pneumoniae 113): 2 µg/mL (≈ 3.59 µM); MIC (E. coli J62): 1 µg/mL (≈ 1.79 µM); MIC (P. aeruginosa PAO1): 8 µg/mL (≈ 14.3 µM); MIC (H. influenzae ATCC 49247): ≤ 0.063 µg/mL; MIC (strain 19): 0.5 µg/mL (≈ 0.897 µM); MIC (M. catarrhalis ICB489): 0.25 µg/mL (≈ 0.448 µM); MIC (strain 21): 1 µg/mL (≈ 1.79 µM); MIC [1]: 16 µg/mL (≈ 28.7 µM); MIC (strain 20): 1 µg/mL (≈ 1.79 µM); MIC (M. morganii 126/3048): 0.5 µg/mL (≈ 0.897 µM); MIC [2]: 8 µg/mL (≈ 14.3 µM); MIC (B. fragilis 6688): 1 µg/mL (≈ 1.79 µM); MIC (E. cloacae 34654): 1 µg/mL (≈ 1.79 µM)
CC1(C)[C@H](NC(=O)/C(=N\OC(COc2ccc(C(=N)N)cc2)C(=O)O)c2csc(N)n2)C(=O)N1OS(=O)(=O)O (mixture of isomers) [Example 27A, (2S and 2R)-2-({[(1Z)-1-(2-Amino-1,3-thiazol-4-yl)-2-{[(3S)-2,2-dimethyl-4-oxo-1-(sulfo-oxy)azetidin-3-yl]amino}-2-oxoethylidene]amino}oxy)-3-(4-carbamimidoylphenoxy)-propanoic acid] | 4 |  | 0.25 | 0.25 | 0.125 µg/mL | 4 | 0.25 | 4 |  | 0.25 | ≦0.063 mg/L | 0.25 | 0.25 µg/mL | 0.125 µg/mL | 4 | 8 | 0.25 µg/mL | 4 | 8 | ≤ 0.063 | MIC (H. influenzae ATCC 49247): 0.5 µg/mL; strain 7 MIC [1]: 4 µg/mL
CC1(C)[C@H](NC(=O)/C(=N\OC(COc2ccc(C(=N)N)nc2)C(=O)O)c2csc(N)n2)C(=O)N1OS(=O)(=O)O (mixture of isomers) [Example 36B, (2S and 2R)-2-({[(1Z)-1-(2-Amino-1,3-thiazol-4-yl)-2-{[(3S)-2,2-dimethyl-4-oxo-1-(sulfo-oxy)azetidin-3-yl]amino}-2-oxoethylidene]amino}oxy)-3-[(6-carbamimidoylpyridin-3-yl)oxy]propanoic acid] | 32 | 16 | 0.5 | 2 | 1 µg/mL | 32 | 4 | 16 | 4 | 2 | 0.5 µg/mL | 2 | 2 µg/mL | 2 µg/mL | 32 | 32 | 2 µg/mL |  |  |  | strain 18 MIC (E. coli J62-TEM-3): 32 µg/mL; strain 11 MIC (S. aureus 133): 0.125 µg/mL
CC1(C)[C@H](NC(=O)/C(=N\OC(COc2ccc(C(=N)N)nc2)C(=O)O)c2csc(N)n2)C(=O)N1OS(=O)(=O)O (mixture of isomers) [Example 36A, (2S and 2R)-2-({[(1Z)-1-(2-Amino-1,3-thiazol-4-yl)-2-{[(3S)-2,2-dimethyl-4-oxo-1-(sulfo-oxy)azetidin-3-yl]amino}-2-oxoethylidene]amino}oxy)-3-[(6-carbamimidoylpyridin-3-yl)oxy]propanoic acid] | 2 | 2 | 0.125 | 0.125 | ≦0.063 mg/L | 4 | 0.125 | 4 | 0.5 | 0.125 | ≦0.063 mg/L | 0.125 | ≦0.063 mg/L | ≦0.063 mg/L | 4 | 8 | ≦0.063 mg/L |  |  | ≤ 0.063 | strain 18 MIC (E. coli J62-TEM-3): 8 µg/mL; MIC [1]: 4 µg/mL
N=C(N)c1ccc(OCCO/N=C(\C(=O)NC2C(=O)N(OS(=O)(=O)O)C23CCCC3)c2csc(N)n2)cc1 (centres unmarked) [Example 16, (2Z)-2-(2-Amino-1,3-thiazol-4-yl)-2-{[2-(4-carbamimidoylphenoxy)ethoxy]imino}-N-[2-oxo-1-(sulfooxy)-1-azaspiro[3.4]oct-3-yl]ethanamide] |  |  |  |  |  |  |  |  |  |  |  |  |  |  |  |  |  | 8 (≈ 14.1 µM) | 4 (≈ 7.05 µM) | ≤ 0.063 | MIC (C. perfringens DSM756): 4 µg/mL (≈ 7.05 µM); MIC (C. freundii K21/3034): 2 µg/mL (≈ 3.52 µM); MIC (E. coli ATCC25922): 1 µg/mL (≈ 1.76 µM); MIC (K. pneumoniae 60): 1 µg/mL (≈ 1.76 µM); MIC (A. baumannii ATCC15308): 4 µg/mL (≈ 7.05 µM); MIC (E. coli J62): 2 µg/mL (≈ 3.52 µM); MIC (P. aeruginosa PAO1): 32 µg/mL (≈ 56.4 µM); MIC (H. influenzae ATCC 49247): ≤ 0.063 µg/mL; MIC (strain 19): 1 µg/mL (≈ 1.76 µM); MIC (M. catarrhalis ICB489): 1 µg/mL (≈ 1.76 µM); MIC (strain 21): 1 µg/mL (≈ 1.76 µM); MIC [1]: 32 µg/mL (≈ 56.4 µM); MIC (strain 20): 1 µg/mL (≈ 1.76 µM); MIC (M. morganii 126/3048): 0.5 µg/mL (≈ 0.881 µM); MIC [2]: 32 µg/mL (≈ 56.4 µM); MIC (B. fragilis 6688): 8 µg/mL (≈ 14.1 µM); MIC (E. cloacae 34654): 1 µg/mL (≈ 1.76 µM)
CC1(C)[C@H](NC(=O)/C(=N\OC(COc2ccc(C(=N)N)c(O)c2)C(=O)O)c2csc(N)n2)C(=O)N1OS(=O)(=O)O (mixture of isomers) [Example 34A, (2S and 2R)-2-({[(1Z)-1-(2-Amino-1,3-thiazol-4-yl)-2-{[(3S)-2,2-dimethyl-4-oxo-1-(sulfo-oxy)azetidin-3-yl]amino}-2-oxoethylidene]amino}oxy)-3-(4-carbamimidoyl-3-hydroxyphenoxy)propanoic acid] | 2 | 8 | 1 | 1 | 1 µg/mL |  | 1 | 8 | 0.5 | 0.5 | ≦0.063 mg/L | 0.5 | 0.5 µg/mL | 0.25 µg/mL |  |  | 0.5 µg/mL |  | 32 |  | MIC (A. baumannii ATCC15308): 32 µg/mL; strain 7 MIC [1]: 8 µg/mL; MIC [2]: 16 µg/mL; MIC (B. fragilis 6688): 16 µg/mL; strain 11 MIC (S. aureus 133): ≦0.063 mg/L
